Laboratory results: PubChem BioAssay (NCI)
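GI50 = concentration required for 50% inhibition of growth. The concentration for full growth arrest is given as TGI.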

Experiments:
Assay in all cases: inhibition of tumour cell growth, NCI panel, 384-well format
SK-MEL-2 melanoma = tested on: SK-MEL-2 melanoma
HOP-92 NSCLC = tested on: HOP-92 NSCLC
SF-539 CNS = tested on: SF-539 CNS
DU-145 prostate = tested on: DU-145 prostate
RXF 393 renal = tested on: RXF 393 renal
HT29 colon = tested on: HT29 colon
UO-31 renal = tested on: UO-31 renal
MOLT-4 leukemia = tested on: MOLT-4 leukemia
OVCAR-5 ovarian = tested on: OVCAR-5 ovarian
MDA-MB-231 breast = tested on: MDA-MB-231 breast
HS 578T breast = tested on: HS 578T breast
KM12 colon = tested on: KM12 colon
EKVX NSCLC = tested on: EKVX NSCLC
PC-3 prostate = tested on: PC-3 prostate
OVCAR-8 ovarian = tested on: OVCAR-8 ovarian
NCI-H226 lung = tested on: NCI-H226 lung
HCT-116 colon = tested on: HCT-116 colon
K-562 leukemia = tested on: K-562 leukemia
CAKI-1 renal = tested on: CAKI-1 renal
NCI-H522 lung = tested on: NCI-H522 lung
T-47D breast = tested on: T-47D breast
TK-10 renal = tested on: TK-10 renal
SN12C renal = tested on: SN12C renal
HOP-62 NSCLC = tested on: HOP-62 NSCLC
OVCAR-4 ovarian = tested on: OVCAR-4 ovarian
A498 renal = tested on: A498 renal
U251 glioblastoma = tested on: U251 glioblastoma
A549 NSCLC = tested on: A549 NSCLC
NCI/ADR-RES ovarian = tested on: NCI/ADR-RES ovarian
SNB-75 CNS = tested on: SNB-75 CNS
HL-60(TB) leukemia = tested on: HL-60(TB) leukemia
LOX IMVI melanoma = tested on: LOX IMVI melanoma
RPMI-8226 leukemia = tested on: RPMI-8226 leukemia
SNB-19 CNS = tested on: SNB-19 CNS
SF-268 CNS = tested on: SF-268 CNS
UACC-62 melanoma = tested on: UACC-62 melanoma
MALME-3M melanoma = tested on: MALME-3M melanoma
SK-MEL-28 melanoma = tested on: SK-MEL-28 melanoma
OVCAR-3 ovarian = tested on: OVCAR-3 ovarian
SF-295 CNS = tested on: SF-295 CNS
NCI-H322M lung = tested on: NCI-H322M lung
UACC-257 melanoma = tested on: UACC-257 melanoma
HCT-15 colon = tested on: HCT-15 colon
MCF7 breast = tested on: MCF7 breast
BT-549 breast = tested on: BT-549 breast
NCI-H23 lung = tested on: NCI-H23 lung
SW-620 colon = tested on: SW-620 colon
IGROV1 ovarian = tested on: IGROV1 ovarian
SK-OV-3 ovarian = tested on: SK-OV-3 ovarian
786-0 renal = tested on: 786-0 renal
MDA-MB-468 breast = tested on: MDA-MB-468 breast
CCRF-CEM leukemia = tested on: CCRF-CEM leukemia
ACHN renal = tested on: ACHN renal
M14 melanoma = tested on: M14 melanoma
MDA-MB-435 melanoma = tested on: MDA-MB-435 melanoma

Question: What does the source list for `O=P1(NCCCl)OCCCN1CCCl` (stereo not given)?
Answer: GI50 (SK-MEL-2 melanoma): > 100 µM; TGI (SK-MEL-2 melanoma): > 100 µM; GI50 (HOP-92 NSCLC): > 100 µM; TGI (HOP-92 NSCLC): > 100 µM; GI50 (SF-539 CNS): > 100 µM; TGI (SF-539 CNS): > 100 µM; GI50 (DU-145 prostate): > 100 µM; TGI (DU-145 prostate): > 100 µM; GI50 (RXF 393 renal): > 100 µM; TGI (RXF 393 renal): > 100 µM; GI50 (HT29 colon): > 100 µM; TGI (HT29 colon): > 100 µM; GI50 (UO-31 renal): > 100 µM; TGI (UO-31 renal): > 100 µM; GI50 (MOLT-4 leukemia): > 100 µM; TGI (MOLT-4 leukemia): > 100 µM; GI50 (OVCAR-5 ovarian): > 100 µM; TGI (OVCAR-5 ovarian): > 100 µM; GI50 (MDA-MB-231 breast): > 100 µM; TGI (MDA-MB-231 breast): > 100 µM; GI50 (HS 578T breast): > 100 µM; TGI (HS 578T breast): > 100 µM; GI50 (KM12 colon): > 100 µM; TGI (KM12 colon): > 100 µM; GI50 (EKVX NSCLC): > 100 µM; TGI (EKVX NSCLC): > 100 µM; GI50 (PC-3 prostate): > 100 µM; TGI (PC-3 prostate): > 100 µM; GI50 (OVCAR-8 ovarian): > 100 µM; TGI (OVCAR-8 ovarian): > 100 µM; GI50 (NCI-H226 lung): > 100 µM; TGI (NCI-H226 lung): > 100 µM; GI50 (HCT-116 colon): > 100 µM; TGI (HCT-116 colon): > 100 µM; GI50 (K-562 leukemia): > 100 µM; TGI (K-562 leukemia): > 100 µM; GI50 (CAKI-1 renal): > 100 µM; TGI (CAKI-1 renal): > 100 µM; GI50 (NCI-H522 lung): > 100 µM; TGI (NCI-H522 lung): > 100 µM; GI50 (T-47D breast): > 100 µM; TGI (T-47D breast): > 100 µM; GI50 (TK-10 renal): > 100 µM; TGI (TK-10 renal): > 100 µM; GI50 (SN12C renal): > 100 µM; TGI (SN12C renal): > 100 µM; GI50 (HOP-62 NSCLC): > 100 µM; TGI (HOP-62 NSCLC): > 100 µM; GI50 (OVCAR-4 ovarian): > 100 µM; TGI (OVCAR-4 ovarian): > 100 µM; GI50 (A498 renal): > 100 µM; TGI (A498 renal): > 100 µM; GI50 (U251 glioblastoma): > 100 µM; TGI (U251 glioblastoma): > 100 µM; GI50 (A549 NSCLC): > 100 µM; TGI (A549 NSCLC): > 100 µM; GI50 (NCI/ADR-RES ovarian): > 100 µM; TGI (NCI/ADR-RES ovarian): > 100 µM; GI50 (SNB-75 CNS): > 100 µM; TGI (SNB-75 CNS): > 100 µM; GI50 (HL-60(TB) leukemia): > 100 µM; TGI (HL-60(TB) leukemia): > 100 µM; GI50 (LOX IMVI melanoma): > 100 µM; TGI (LOX IMVI melanoma): > 100 µM; GI50 (RPMI-8226 leukemia): > 100 µM; TGI (RPMI-8226 leukemia): > 100 µM; GI50 (SNB-19 CNS): > 100 µM; TGI (SNB-19 CNS): > 100 µM; GI50 (SF-268 CNS): > 100 µM; TGI (SF-268 CNS): > 100 µM; GI50 (UACC-62 melanoma): > 100 µM; TGI (UACC-62 melanoma): > 100 µM; GI50 (MALME-3M melanoma): > 100 µM; TGI (MALME-3M melanoma): > 100 µM; GI50 (SK-MEL-28 melanoma): > 100 µM; TGI (SK-MEL-28 melanoma): > 100 µM; GI50 (OVCAR-3 ovarian): > 100 µM; TGI (OVCAR-3 ovarian): > 100 µM; GI50 (SF-295 CNS): > 100 µM; TGI (SF-295 CNS): > 100 µM; GI50 (NCI-H322M lung): > 100 µM; TGI (NCI-H322M lung): > 100 µM; GI50 (UACC-257 melanoma): > 100 µM; TGI (UACC-257 melanoma): > 100 µM; GI50 (HCT-15 colon): > 100 µM; TGI (HCT-15 colon): > 100 µM; GI50 (MCF7 breast): > 100 µM; TGI (MCF7 breast): > 100 µM; GI50 (BT-549 breast): > 100 µM; TGI (BT-549 breast): > 100 µM; GI50 (NCI-H23 lung): > 100 µM; TGI (NCI-H23 lung): > 100 µM; GI50 (SW-620 colon): > 100 µM; TGI (SW-620 colon): > 100 µM; GI50 (IGROV1 ovarian): > 100 µM; TGI (IGROV1 ovarian): > 100 µM; GI50 (SK-OV-3 ovarian): > 100 µM; TGI (SK-OV-3 ovarian): > 100 µM; GI50 ([…]-0 renal): > 100 µM; TGI (786-0 renal): > 100 µM; GI50 (MDA-MB-468 breast): > 100 µM; TGI (MDA-MB-468 breast): > 100 µM; GI50 (CCRF-CEM leukemia): > 100 µM; TGI (CCRF-CEM leukemia): > 100 µM; GI50 (ACHN renal): > 100 µM; TGI (ACHN renal): > 100 µM; GI50 (M14 melanoma): > 100 µM; TGI (M14 melanoma): > 100 µM; GI50 (MDA-MB-435 melanoma): > 100 µM; TGI (MDA-MB-435 melanoma): > 100 µM
